# Reference: patent publication US4356186A, “Acetic acid derivatives and composition containing the same” (priority 1980, dated 1982)
# Like-named read-outs stand apart in the source and are kept apart here.
# Key:
# [1] = tested on: carrageenin-induced hind paw edema; test: Anti-inflammatory activity (carrageenin-induced hind paw edema in rats); format: in vivo, Male Wistar rats; settings: for inhibition in vivo at 1 mg/kg / inhibition in vivo at 2 mg/kg / inhibition in vivo at 4 mg/kg / inhibition in vivo at 8 mg/kg / inhibition in vivo at 0.5 mg/kg / inhibition in vivo at 80 mg/kg / inhibition in vivo at 5 mg/kg / inhibition in vivo at 20 mg/kg / inhibition in vivo at 40 mg/kg / inhibition in vivo at 160 mg/kg / inhibition in vivo at 10 mg/kg: Rattus norvegicus, po; for inhibition in vivo at 1 mg/kg: 1 mg/kg p.o.; for inhibition in vivo at 4 mg/kg: 4 mg/kg p.o.; for inhibition in vivo at 8 mg/kg: 8 mg/kg p.o.; for inhibition in vivo at 0.5 mg/kg: 0.5 mg/kg p.o.; for anti-inflammatory activity compared with the known indomethacin / anti-inflammatory activity compared with the known aspirin: in words, from Table 1; for inhibition in vivo at 10 mg/kg: 10 mg/kg p.o.
# Procedure: Anti-inflammatory activity (carrageenin-induced hind paw edema in rats)
# The test was carried out in a similar manner as disclosed in Proc. Soc. Exptl.
# Male Wistar rats, weighing 100-300 g, were used. A 1% aqueous carrageenin solution (0.1 ml) was administered subcutaneously into the hind foot pad of rats. Two and three hours after the carrageenin injection, the paw volume was measured and the swelling rate was calculated based on the paw volume before the carrageenin injection. The inhibitory rate was determined as compared with the average swelling rate of the control group to which only vehicle was administered. The test compounds were administered orally one hour before the carrageenin injection.
# stomach ulcer = test: Gastrointestinal ulcerogenicity; format: in vivo, Male Wistar rats; parameters: key to Average score of stomach ulcer: ulcer score 1 to 4, 4 = most severe ulcer; settings: after 6 hours; for Average score of stomach ulcer: score 1 to 4
# Procedure: Gastrointestinal ulcerogenicity
# The test was carried out in a similar manner as disclosed in Arzneim. Forsch., 19, 36 (1969).
# Male Wistar rats, weighing 130-180 g, were used. After the rats were fasted for 24 hours, the test compound was orally administered one time. After 6 hours, the rats were killed and the stomach was removed. […] The degree of stomach ulcer was scored from 1 to 4, wherein 4 is the most severe ulcer. In Table 2, there are shown the average score of stomach ulcer in each dose and also the ratio of the number of rats having a score of stomach ulcer of 2 or more to total number of rats used.
# [2] = 2 h, two hours, read-out: Inhibitory rate, two hours after the carrageenin injection
# [3] = 2 h, 2 mg/kg p.o., two hours, read-out: Inhibitory rate, two hours after the carrageenin injection
# [4] = 3 h, three hours, read-out: Inhibitory rate, three hours after the carrageenin injection
# [5] = 3 h, 2 mg/kg p.o., three hours, read-out: Inhibitory rate, three hours after the carrageenin injection
# [6] = 2 h, 80 mg/kg p.o., two hours, read-out: Inhibitory rate, two hours after the carrageenin injection
# [7] = 3 h, 80 mg/kg p.o., three hours, read-out: Inhibitory rate, three hours after the carrageenin injection
# [8] = 2 h, read-out: Inhibitory rate, two hours after the carrageenin injection
# [9] = 3 h, read-out: Inhibitory rate, three hours after the carrageenin injection
# [10] = 2 h, 40 mg/kg p.o., two hours, read-out: Inhibitory rate, two hours after the carrageenin injection
# [11] = 3 h, 40 mg/kg p.o., three hours, read-out: Inhibitory rate, three hours after the carrageenin injection
# [12] = 2 h, 5 mg/kg p.o., two hours, read-out: Inhibitory rate, two hours after the carrageenin injection
# [13] = 3 h, 5 mg/kg p.o., three hours, read-out: Inhibitory rate, three hours after the carrageenin injection
smiles,measurement,setting,value
"CC(C(N)=O)c1ccc2c(c1)SCC1CCCCC1C2=O (single isomer, unassigned) [R, 2-(6,6a,7,8,9,10,10a,11-Octahydro-11-oxodibenzo[b,e]thiepin-3-yl)propionamide-A]",inhibition in vivo at 1 mg/kg,[1]; [2],29.3%
same,inhibition in vivo at 2 mg/kg,[1]; [3],30.7%
same,inhibition in vivo at 4 mg/kg,[1]; [2],38.4%
same,inhibition in vivo at 8 mg/kg,[1]; [2],43.6%
same,inhibition in vivo at 1 mg/kg,[1]; [4],24.7%
same,inhibition in vivo at 2 mg/kg,[1]; [5],27.6%
same,inhibition in vivo at 4 mg/kg,[1]; [4],37.7%
same,inhibition in vivo at 8 mg/kg,[1]; [4],36%
same,Number of rats having a score of stomach ulcer of 2 or more/total number of rats used,stomach ulcer; 8 mg/kg p.o.,0/3
same,Average score of stomach ulcer,stomach ulcer; 8 mg/kg p.o.,0.00
same,Number of rats having a score of stomach ulcer of 2 or more/total number of rats used,stomach ulcer; 16 mg/kg p.o.,4/6
same,Average score of stomach ulcer,stomach ulcer; 16 mg/kg p.o.,1.67
same,Number of rats having a score of stomach ulcer of 2 or more/total number of rats used,stomach ulcer; 32 mg/kg p.o.,3/3
same,Average score of stomach ulcer,stomach ulcer; 32 mg/kg p.o.,2.33
"CC(C(=O)O)c1ccc2c(c1)OCC1CCCCC1C2=O (stereo not shown) [A, 2-(6,6a,7,8,9,10,10a,11-Octahydro-11-oxodibenz[b,e]oxepin-3-yl)propionicacid]",inhibition in vivo at 0.5 mg/kg,[1]; [2],23.7%
same,inhibition in vivo at 1 mg/kg,[1]; [2],34.3%
same,inhibition in vivo at 2 mg/kg,[1]; [3],40.5%
same,inhibition in vivo at 0.5 mg/kg,[1]; [4],17.4%
same,inhibition in vivo at 1 mg/kg,[1]; [4],26.9%
same,inhibition in vivo at 2 mg/kg,[1]; [5],32.6%
same,anti-inflammatory activity compared with the known indomethacin,[1],comparable or superior to that of the known indomethacin
"O=C(O)Cc1ccc2c(c1)OCC1CCCCC1C2=O (stereo not shown) [B, 6,6a,7,8,9,10,10a,11-Octahydro-11-oxodibenz[b,e]oxepin-3-acetic acid]",inhibition in vivo at 1 mg/kg,[1]; [2],17.8%
same,inhibition in vivo at 1 mg/kg,[1]; [4],7.8%
same,anti-inflammatory activity compared with the known indomethacin,[1],comparable or superior to that of the known indomethacin
"CC(C(=O)O)c1ccc2c(c1)C(=O)C1CCCCC1CO2 (stereo not shown) [C, 2-(6,6a,7,8,9,10,10a,11-Octahydro-11-oxodibenz[b,e]oxepin-2-yl)propionicacid]",inhibition in vivo at 80 mg/kg,[1]; [6],27.9%
same,inhibition in vivo at 80 mg/kg,[1]; [7],23.1%
same,anti-inflammatory activity compared with the known aspirin,[1],comparable or superior to that of the known aspirin
"COc1ccc2c(c1)c(CC(=O)O)c(C)n2C(=O)c1ccc(Cl)cc1 [Compound 1, Indomethacin, reference compound]",inhibition in vivo at 2 mg/kg,[1]; [8],20.5%
same,inhibition in vivo at 5 mg/kg,[1]; [8],42.4%
same,inhibition in vivo at 2 mg/kg,[1]; [9],19.3%
same,inhibition in vivo at 5 mg/kg,[1]; [9],36.3%
same,Average score of stomach ulcer,stomach ulcer; 4 mg/kg p.o.,0.50
same,Average score of stomach ulcer,stomach ulcer; 8 mg/kg p.o.,1.78
same,Average score of stomach ulcer,stomach ulcer; 16 mg/kg p.o.,2.56
"CC(=O)Oc1ccccc1C(=O)O [Compound 2, Aspirin, reference compound]",inhibition in vivo at 20 mg/kg,[1]; [8],14.1%
same,inhibition in vivo at 40 mg/kg,[1]; [8],22.9%
same,inhibition in vivo at 80 mg/kg,[1]; [8],30.8%
same,inhibition in vivo at 160 mg/kg,[1]; [8],35.1%
same,inhibition in vivo at 20 mg/kg,[1]; [9],9%
same,inhibition in vivo at 40 mg/kg,[1]; [9],21.2%
same,inhibition in vivo at 80 mg/kg,[1]; [9],25.9%
same,inhibition in vivo at 160 mg/kg,[1]; [9],30.9%
same,Number of rats having a score of stomach ulcer of 2 or more/total number of rats used,stomach ulcer; 20 mg/kg p.o.,0/6
same,Average score of stomach ulcer,stomach ulcer; 20 mg/kg p.o.,0.83
same,Number of rats having a score of stomach ulcer of 2 or more/total number of rats used,stomach ulcer; 40 mg/kg p.o.,3/6
same,Average score of stomach ulcer,stomach ulcer; 40 mg/kg p.o.,1.33
same,Number of rats having a score of stomach ulcer of 2 or more/total number of rats used,stomach ulcer; 60 mg/kg p.o.,5/6
same,Average score of stomach ulcer,stomach ulcer; 60 mg/kg p.o.,2.33
same,Number of rats having a score of stomach ulcer of 2 or more/total number of rats used,stomach ulcer; 80 mg/kg p.o.,5/6
same,Average score of stomach ulcer,stomach ulcer; 80 mg/kg p.o.,3.33
same,Number of rats having a score of stomach ulcer of 2 or more/total number of rats used,stomach ulcer; 160 mg/kg p.o.,6/6
same,Average score of stomach ulcer,stomach ulcer; 160 mg/kg p.o.,4.00
"CC(C(=O)O)c1ccc2c(c1)C(=O)C1CCCCC1CS2 (stereo not shown) [D, 2-(6,6a,7,8,9,10,10a,11-Octahydro-11-oxodibenzo[b,e]thiepin-2-yl)propionicacid]",inhibition in vivo at 40 mg/kg,[1]; [10],28.6%
same,inhibition in vivo at 80 mg/kg,[1]; [6],34%
same,inhibition in vivo at 40 mg/kg,[1]; [11],24.6%
same,inhibition in vivo at 80 mg/kg,[1]; [7],27.1%
same,anti-inflammatory activity compared with the known aspirin,[1],comparable or superior to that of the known aspirin
"O=C(O)Cc1ccc2c(c1)SCC1CCCCC1C2=O (stereo not shown) [E, 6,6a,7,8,9,10,10a,11-Octahydro-11-oxodibenzo[b,e]thiepin-3-acetic acid]",inhibition in vivo at 2 mg/kg,[1]; [3],26.3%
same,inhibition in vivo at 2 mg/kg,[1]; [5],16.8%
same,anti-inflammatory activity compared with the known indomethacin,[1],comparable or superior to that of the known indomethacin
"CC(C(=O)O)c1ccc2c(c1)SCC1CCCCC1C2=O (stereo not shown) [G, 2-(6,6a,7,8,9,10,10a,11-Octahydro-11-oxodibenzo[b,e]thiepin-3-yl)propionicacid-B]",inhibition in vivo at 10 mg/kg,[1]; [2],12%
same,inhibition in vivo at 20 mg/kg,"[1]; 2 h, 20 mg/kg p.o., two hours, read-out: Inhibitory rate, two hours after the carrageenin injection",18.3%
same,inhibition in vivo at 40 mg/kg,[1]; [10],33.2%
same,inhibition in vivo at 80 mg/kg,[1]; [6],32.2%
same,inhibition in vivo at 10 mg/kg,[1]; [4],7.1%
same,inhibition in vivo at 20 mg/kg,"[1]; 3 h, 20 mg/kg p.o., three hours, read-out: Inhibitory rate, three hours after the carrageenin injection",11%
same,inhibition in vivo at 40 mg/kg,[1]; [11],26.9%
same,inhibition in vivo at 80 mg/kg,[1]; [7],30.2%
same,anti-inflammatory activity compared with the known aspirin,[1],comparable or superior to that of the known aspirin
"C=CCOC(=O)C(C)c1ccc2c(c1)SCC1CCCCC1C2=O (stereo not shown) [K, Allyl 2-(6,6a,7,8,9,10,10a,11-octahydro-11-oxodibenzo[b,e]thiepin-3-yl)propionate]",inhibition in vivo at 2 mg/kg,[1]; [3],27%
same,inhibition in vivo at 5 mg/kg,[1]; [12],34.3%
same,inhibition in vivo at 2 mg/kg,[1]; [5],22.3%
same,inhibition in vivo at 5 mg/kg,[1]; [13],33.5%
"CC(C(=O)OCC(=O)c1ccccc1)c1ccc2c(c1)SCC1CCCCC1C2=O (stereo not shown) [M, Phenacyl 2-(6,6a,7,8,9,10,10a,11-octahydro-11-oxodibenzo[b,e]thiepin-3-yl)propionate]",inhibition in vivo at 5 mg/kg,[1]; [12],33.2%
same,inhibition in vivo at 5 mg/kg,[1]; [13],26.6%
"CC(C(=O)OCCOCCO)c1ccc2c(c1)SCC1CCCCC1C2=O (stereo not shown) [N, 2-(2-Hydroxyethoxy)ethyl 2-(6,6a,7,8,9,10,10a,11-octahydro-11-oxodibenzo[b,e]thiepin-3-yl)propionate]",inhibition in vivo at 2 mg/kg,[1]; [3],15.8%
same,inhibition in vivo at 5 mg/kg,[1]; [12],43.9%
same,inhibition in vivo at 2 mg/kg,[1]; [5],13.2%
same,inhibition in vivo at 5 mg/kg,[1]; [13],28.1%
"CC(C(=O)OCCN1CCOCC1)c1ccc2c(c1)SCC1CCCCC1C2=O (stereo not shown) [Q, 2-Morpholinoethyl 2-(6,6a,7,8,9,10,10a,11-octahydro-11-oxodibenzo[b,e]thiepin-3-yl)propionate]",inhibition in vivo at 2 mg/kg,[1]; [3],25.4%
same,inhibition in vivo at 5 mg/kg,[1]; [12],28.9%
same,inhibition in vivo at 2 mg/kg,[1]; [5],22.8%
same,inhibition in vivo at 5 mg/kg,[1]; [13],22%
"CC(C(=O)NO)c1ccc2c(c1)SCC1CCCCC1C2=O (stereo not shown) [S, 2-(6,6a,7,8,9,10,10a,11-Octahydro-11-oxodibenzo[b,e]thiepin-3-yl)propionohydroxamic acid]",inhibition in vivo at 2 mg/kg,[1]; [3],21.9%
same,inhibition in vivo at 5 mg/kg,[1]; [12],31.5%
same,inhibition in vivo at 2 mg/kg,[1]; [5],18.5%
same,inhibition in vivo at 5 mg/kg,[1]; [13],29.9%
"CC(C(=O)NCC(=O)O)c1ccc2c(c1)SCC1CCCCC1C2=O (stereo not shown) [T, N-Carboxymethyl-2-(6,6a,7,8,9,10,10a,11-octahydro-11-oxodibenzo[b,e]thiepin-3-yl)propionamide]",inhibition in vivo at 2 mg/kg,[1]; [3],19.9%
same,inhibition in vivo at 5 mg/kg,[1]; [12],43.9%
same,inhibition in vivo at 2 mg/kg,[1]; [5],15%
same,inhibition in vivo at 5 mg/kg,[1]; [13],28.1%
